Reference: PMC8126241, “Active Components from Cassia abbreviata Prevent HIV-1 Entry by Distinct Mechanisms of Action” (International Journal of Molecular Sciences, 2021)
Like-named read-outs stand apart in the source and are kept apart here.

Experiments:
[1] = test system: Herpes simplex virus-1 TK KOS ACV; assay: Broad spectrum antiviral activity, HEL cells; format: cell-based; details: Human alphaherpesvirus 1, HEL
[2] = test system: HIV-1 IIIB; assay: microbe, parasite or virus in culture; details: Human immunodeficiency virus 1, IIIB, PBMC, 168 h, read-out: IC50 HIV-1 IIIB
[3] = test system: Herpes simplex virus-2 (G); assay: Broad spectrum antiviral activity, HEL cells; format: cell-based; details: Human alphaherpesvirus 2, HEL
[4] = test system: non-B HIV-1 primary clinical isolate #1; assay: microbe, parasite or virus in culture; details: Human immunodeficiency virus 1, PBMC, 168 h, read-out: IC50 non-B HIV-1 primary clinical isolate (first named)
[5] = test system: Coxsackie virus B4; assay: Broad spectrum antiviral activity, vero cells; format: cell-based; details: Enterovirus B
[6] = test system: Hepatitis C virus (Jc1); assay: Broad spectrum antiviral activity, Huh 7-D cells; format: cell-based
[7] = test system: Influenza B B/Ned/537/05; assay: microbe, parasite or virus in culture; format: cell-based; details: MDCK cells
[8] = test system: DC-SIGN-captured virus transmission to CD4+ T cells; assay: HIV-1 DC-SIGN transmission assay; format: cell-based; details: in vitro, data not shown
Protocol: (§1) Dual chamber transmission assay was performed as previously described. HeLa cells were seeded into an upper chamber of a transwell plate (Sigma-Aldrich, Liège, Belgium), while TZM-bl cells were seeded in the lower chamber. Trans Epithelial Electric Resistance (TEER) was measured using Millicell-ERS Volt-Ohm Meter. HIV-1 ADA-M (200 pg) and drugs were added to the upper chamber after 4 days when TEER reached 150 Ohm/cm^2. 24 h after infection luciferase value of TZM-bl cells lysate was measured using the Luciferase System Kit and the POLARstar Omega Plate Reader. Data were analyzed using GraphPrism. The HIV-1 DC-SIGN transmission assay was performed as previously described.

[9] = target: T1, CD4 (Homo sapiens, UniProt P01730); assay: Binding competition with anti-CD4 antibodies; details: antibodies OKT4 and RPA-T4, U373-CD4-CXCR4/CCR5 cells
T1 construct: host or cells: U373-CD4-CXCR4 and U373-CD4-CCR5 cells
Protocol: (§2) Binding competition between increasing concentrations of compounds and FITC-conjugated mouse anti-human CD4 clone RPA-4 (Biolegend, Amsterdam, Netherlands), PE-conjugated mouse anti-Human CXCR4 clone 12G5, and PE-conjugated mouse anti-human CCR5 clone 2D7 (BD Pharma, Aalst, Belgium) to U373-CD4-CXCR4 and U373-CD4-CCR5 cells was first tested by flow cytometry (FACSCanto). […] After 1 h of incubation at 4 °C, cells were washed with FACS buffer (1% bovine serum albumin, 0.1% N3Na in PBS, Sigma), and Mean Fluorescence Intensity (MFI) was measured. […] Internalization was stopped after 30 min by addition of NaN3 (0.1%) on ice. Cells were stained with anti-human CXCR4 clone 4G10 (BD, Belgium) or anti-human CCR5 (CD195) clone T21/8, (eBioscience, Asse, Belgium), Near-IR fluorescent reactive dye during 1 h at 4 °C, washed with FACS buffer, and a secondary PE-conjugated goat anti-mouse antibody (Jackson ImmunoResearch, West Grove, PA, USA).

[10] = test system: PBMCs
[11] = test system: pseudotype virus pNL4.3ΔEnvLuc-HXB2; assay: microbe, parasite or virus in culture; details: Human immunodeficiency virus 1, HXB2, read-out: IC50 HIV-1 entry
[12] = target: T2, CXCR4 (Homo sapiens, UniProt P61073); assay: Binding competition with anti-CXCR4 antibody 12G5; details: anti-CXCR4 antibody 12G5, U373-CD4-CXCR4 cells
T2 construct: host or cells: U373-CD4-CXCR4 cells

[13] = test system: Influenza A/H1N1 A/Ned/378/05; assay: Broad spectrum antiviral activity, MDCK cells; format: cell-based; details: Influenza A virus
[14] = test system: non-B HIV-1 primary clinical isolate #2; assay: microbe, parasite or virus in culture; details: Human immunodeficiency virus 1, PBMC, 168 h, read-out: IC50 non-B HIV-1 primary clinical isolate (second named)
[15] = test system: Reovirus-1; assay: Broad spectrum antiviral activity, vero cells; format: cell-based
[16] = test system: Herpes simplex virus-1 (KOS); assay: Broad spectrum antiviral activity, HEL cells; format: cell-based
[17] = test system: Feline herpes virus; assay: Broad spectrum antiviral activity, CRFK cells; format: cell-based
[18] = test system: pseudotype virus pNL4.3ΔEnvLuc-HXB2; details: multi-dosing time assay
[19] = test system: Human corona virus; assay: Broad spectrum antiviral activity, HEL cells; format: cell-based
[20] = test system: Coxsackie virus B4; assay: Broad spectrum antiviral activity, HeLa cells; format: cell-based; details: Enterovirus B
[21] = test system: HIV-1 ADA-M; assay: Dual chamber transmission assay, HeLa upper chamber / TZM-bl lower chamber; format: cell-based; details: dual-chamber system, at IC50 concentration
Protocol: as §1

[22] = target: T3, CCR5 (Homo sapiens, UniProt P51681); assay: Binding competition with anti-CCR5 antibody 2D7; details: anti-CCR5 antibody 2D7, U373-CD4-CCR5 cells
T3 construct: host or cells: U373-CD4-CCR5 cells
Protocol: as §2

[23] = test system: Para-influenza-3 virus; assay: organism not typed; format: cell-based; details: vero cells
[24] = test system: HIV-1 ADA-M; assay: microbe, parasite or virus in culture; details: Human immunodeficiency virus 1, PBMC, 168 h, read-out: IC50 HIV-1 ADA-M
[25] = test system: HeLa cells
Protocol: as §1

[26] = test system: Feline corona virus (FIPV); assay: Broad spectrum antiviral activity, CRFK cells; format: cell-based; details: Alphacoronavirus 1
[27] = test system: sindbisvirus; assay: Broad spectrum antiviral activity, vero cells; format: cell-based

T3 sequence (P51681 whole entry): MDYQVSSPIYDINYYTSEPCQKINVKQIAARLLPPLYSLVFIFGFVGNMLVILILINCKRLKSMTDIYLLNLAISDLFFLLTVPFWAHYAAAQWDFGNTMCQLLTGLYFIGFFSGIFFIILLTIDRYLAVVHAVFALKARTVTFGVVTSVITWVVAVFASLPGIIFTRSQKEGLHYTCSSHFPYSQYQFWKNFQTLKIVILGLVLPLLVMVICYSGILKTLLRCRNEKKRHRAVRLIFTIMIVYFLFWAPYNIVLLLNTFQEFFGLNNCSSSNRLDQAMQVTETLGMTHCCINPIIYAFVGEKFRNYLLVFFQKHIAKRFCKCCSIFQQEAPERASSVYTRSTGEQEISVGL
T2 sequence (P61073 whole entry): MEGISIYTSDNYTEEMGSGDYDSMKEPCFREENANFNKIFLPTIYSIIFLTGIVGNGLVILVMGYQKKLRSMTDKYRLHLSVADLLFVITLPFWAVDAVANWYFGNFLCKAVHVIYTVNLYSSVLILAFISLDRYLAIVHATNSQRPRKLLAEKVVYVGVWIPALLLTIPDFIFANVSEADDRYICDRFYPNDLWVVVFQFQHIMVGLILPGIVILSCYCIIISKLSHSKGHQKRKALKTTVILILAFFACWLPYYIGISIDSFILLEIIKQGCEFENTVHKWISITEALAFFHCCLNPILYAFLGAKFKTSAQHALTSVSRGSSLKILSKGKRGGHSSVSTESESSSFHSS

## Oc1cc(O)cc(/C=C/c2ccc(O)c(O)c2)c1 [piceatannol, trans-3,3′,4,5′-tetrahydroxystilbene]
[1]
  IC50: 45.4 ± 4 µM
[2]
  IC50: 24.2 ± 7.13 µM
[3]
  IC50: ~45 µM
[4]
  IC50: 37.7 ± 12.5 µM
[5]
  IC50: > 100 µM
[6]
  IC50: > 100 µM
[7]
  IC50: > 100 µM
[8]
  Prevention of transmission of DC-SIGN-captured virus to CD4+ T cells: did not prevent
[9]
  Inhibition of anti-CD4 antibodies binding to CD4: neither CE nor piceatannol did
[10]
  Effect on expression of CD25 and CD69: did not have any effect
[11]
  IC50: 10.3 ± 5.74 µM
[12]
  Inhibition of CXCR4 binding: neither CE nor piceatannol did
[13]
  IC50: > 100 µM
[14]
  IC50: 8.04 ± 3.07 µM
[15]
  IC50: > 100 µM
[16]
  IC50: 47.5 ± 3.5 µM
[16]; Human alphaherpesvirus 1, HEL
  IC50: ~45 µM
[17]
  IC50: > 100 µM
[18]; 2 h after spinoculation (post-infection)
  Inhibitory effect when added after infection: did not find any effect
[18]; 2 h pre-incubation on cells, HXB2 and BAL pseudotypes
  Inhibitory effect when pre-incubated with cells: inhibited HIV-1 infection at high concentration
[18]; 2 h pre-incubation on virus, HXB2 and BAL pseudotypes
  Inhibitory effect when pre-incubated with the virus: not pre-incubated with the virus
[19]
  IC50: > 100 µM
[20]
  IC50: > 100 µM
[21]
  Decrease of HIV-1 infection: 33%
[21]; 24 h post-infection
  HIV-1 infection of TZM-Bl cells relative to control (100): 66.9%
[22]
  Inhibition of CCR5 binding: neither CE nor piceatannol did
[23]
  IC50: > 100 µM
[24]
  IC50: 19.9 ± 0.22 µM
[25]
  Effect on confluence layer's TEER and epithelial cells viability: without affecting
[26]
  IC50: > 100 µM
[27]
  IC50: > 100 µM
